Measured values published in the NIST ThermoML archive (doi:10.1016/j.fluid.2019.06.001).
± gives the expanded uncertainty stated by the source.

Details: Fluid (supercritical or subcritical phases), Brillouin light scattering technique

A speed of sound (509.17 K, 3500 kPa) of 162.1 ± 9.4 m/s, a speed of sound (509.4 K, 4500 kPa) of 243.8 ± 14 m/s and a speed of sound (509.44 K, 6500 kPa) of 331.1 ± 21 m/s were found for `CCCCCC` [hexane] in this work. It also gave a speed of sound (509.57 K, 5500 kPa) of 291.1 ± 18 m/s, a speed of sound (509.67 K, 7500 kPa) of 361.3 ± 25 m/s and a speed of sound (511.22 K, 5500 kPa) of 286.1 ± 17 m/s. For the same compound, the speed of sound (511.26 K, 4500 kPa) was 232.7 ± 13 m/s, the speed of sound (511.27 K, 6500 kPa) was 324.2 ± 21 m/s and the speed of sound (511.34 K, 7500 kPa) was 355.3 ± 24 m/s. The speed of sound (511.69 K, 3500 kPa) was 138.7 ± 8.8 m/s, the speed of sound (514.25 K, 7500 kPa) was 347.2 ± 23 m/s and the speed of sound (514.43 K, 6500 kPa) was 314.1 ± 20 m/s. It also gave a speed of sound (514.46 K, 3500 kPa) of 112.5 ± 8.6 m/s, a speed of sound (514.5 K, 4500 kPa) of 216.4 ± 12 m/s and a speed of sound (514.6 K, 5500 kPa) of 272 ± 16 m/s. For the same compound, the speed of sound (517.46 K, 7500 kPa) was 336.8 ± 22 m/s, the speed of sound (517.47 K, 4500 kPa) was 201.9 ± 11 m/s and the speed of sound (517.58 K, 6500 kPa) was 303.6 ± 18 m/s. The speed of sound (517.72 K, 3500 kPa) was 95.8 ± 8.2 m/s, the speed of sound (517.82 K, 5500 kPa) was 260.2 ± 15 m/s and the speed of sound (519.87 K, 3500 kPa) was 100.4 ± 7.2 m/s. It also gave a speed of sound (520.19 K, 7500 kPa) of 328.5 ± 21 m/s, a speed of sound (520.36 K, 4500 kPa) of 183.7 ± 10 m/s and a speed of sound (520.46 K, 6500 kPa) of 289 ± 17 m/s. It also gave a speed of sound (520.54 K, 5500 kPa) of 245.2 ± 14 m/s, a speed of sound (523.4 K, 4500 kPa) of 168.4 ± 8.9 m/s and a speed of sound (523.63 K, 6500 kPa) of 278.2 ± 16 m/s. It also gave a speed of sound (523.79 K, 3500 kPa) of 112.7 ± 6.2 m/s, a speed of sound (523.89 K, 5500 kPa) of 229.4 ± 13 m/s and a speed of sound (523.93 K, 7500 kPa) of 316.5 ± 20 m/s. The speed of sound (527.66 K, 4500 kPa) was 155 ± 7.6 m/s, the speed of sound (527.85 K, 3500 kPa) was 120.4 ± 5.5 m/s and the speed of sound (528.22 K, 5500 kPa) was 210.9 ± 11 m/s. The speed of sound (528.42 K, 7500 kPa) was 304.2 ± 18 m/s, the speed of sound (528.58 K, 6500 kPa) was 263.2 ± 15 m/s and the speed of sound (533.3 K, 4500 kPa) was 131.7 ± 6 m/s. For the same compound, the speed of sound (533.43 K, 7500 kPa) was 285.3 ± 17 m/s, the speed of sound (533.48 K, 6500 kPa) was 248.1 ± 14 m/s and the speed of sound (533.62 K, 5500 kPa) was 194.1 ± 10 m/s. The speed of sound (533.83 K, 3500 kPa) was 134.2 ± 5.7 m/s, the speed of sound (538.14 K, 4500 kPa) was 125 ± 5.5 m/s and the speed of sound (538.33 K, 5500 kPa) was 174.8 ± 9 m/s. The speed of sound (538.58 K, 6500 kPa) was 231.5 ± 13 m/s, the speed of sound (538.81 K, 7500 kPa) was 270.8 ± 16 m/s and the speed of sound (538.84 K, 3500 kPa) was 140.1 ± 6.1 m/s. For the same compound, the speed of sound (543 K, 4500 kPa) was 125.6 ± 5.4 m/s, the speed of sound (543.14 K, 6500 kPa) was 219.9 ± 12 m/s and the speed of sound (543.21 K, 5500 kPa) was 165.4 ± 8.1 m/s. For the same compound, the speed of sound (543.52 K, 7500 kPa) was 259.9 ± 15 m/s, the speed of sound (543.69 K, 3500 kPa) was 145.3 ± 6.3 m/s and the speed of sound (547.89 K, 5500 kPa) was 158.2 ± 7.6 m/s. It also gave a speed of sound (547.96 K, 4500 kPa) of 130.2 ± 5.6 m/s, a speed of sound (548.14 K, 6500 kPa) of 207.4 ± 11 m/s and a speed of sound (548.31 K, 3500 kPa) of 149.2 ± 6.8 m/s. It also gave a speed of sound (548.56 K, 7500 kPa) of 248.3 ± 14 m/s, a speed of sound (553.1 K, 3500 kPa) of 155.1 ± 7.1 m/s and a speed of sound (553.44 K, 7500 kPa) of 235.1 ± 13 m/s. It also gave a speed of sound (553.55 K, 6500 kPa) of 194.1 ± 9.8 m/s, a speed of sound (553.6 K, 4500 kPa) of 134.9 ± 5.8 m/s and a speed of sound (554.09 K, 5500 kPa) of 150.9 ± 7 m/s. It also gave a speed of sound (558.44 K, 3500 kPa) of 161.5 ± 7.3 m/s, a speed of sound (558.48 K, 4500 kPa) of 139.2 ± 6 m/s and a speed of sound (558.9 K, 5500 kPa) of 144.8 ± 6.4 m/s. It also gave a speed of sound (559.79 K, 6500 kPa) of 180.9 ± 8.9 m/s, a speed of sound (560.33 K, 7500 kPa) of 222.2 ± 12 m/s and a speed of sound (562.44 K, 4500 kPa) of 142.8 ± 6.1 m/s. For the same compound, the speed of sound (562.56 K, 3500 kPa) was 164.9 ± 7.5 m/s, the speed of sound (563.13 K, 5500 kPa) was 143.4 ± 6.2 m/s and the speed of sound (563.76 K, 6500 kPa) was 171.7 ± 8.4 m/s. For the same compound, the speed of sound (563.92 K, 7500 kPa) was 215.1 ± 11 m/s, the speed of sound (567.95 K, 4500 kPa) was 150.6 ± 6.8 m/s and the speed of sound (568.21 K, 3500 kPa) was 168.8 ± 7.9 m/s. The speed of sound (568.4 K, 5500 kPa) was 146.5 ± 6.6 m/s, the speed of sound (568.54 K, 7500 kPa) was 205.6 ± 11 m/s and the speed of sound (568.59 K, 6500 kPa) was 169 ± 8.1 m/s. It also gave a speed of sound (573.12 K, 7500 kPa) of 201.1 ± 10 m/s, a speed of sound (573.18 K, 5500 kPa) of 150 ± 6.7 m/s and a speed of sound (573.36 K, 4500 kPa) of 155.7 ± 7 m/s. For the same compound, the speed of sound (573.51 K, 6500 kPa) was 165.9 ± 7.6 m/s, the speed of sound (574.58 K, 3500 kPa) was 174.8 ± 8.2 m/s and the speed of sound (578.08 K, 4500 kPa) was 161.3 ± 7.2 m/s. For the same compound, the speed of sound (578.22 K, 5500 kPa) was 154 ± 6.9 m/s, the speed of sound (578.65 K, 6500 kPa) was 167.9 ± 7.9 m/s and the speed of sound (578.77 K, 3500 kPa) was 177.5 ± 8.3 m/s. It also gave a speed of sound (579.07 K, 7500 kPa) of 191.7 ± 9.4 m/s, a speed of sound (582.79 K, 5500 kPa) of 157.3 ± 7 m/s and a speed of sound (582.93 K, 4500 kPa) of 164.7 ± 7.4 m/s. For the same compound, the speed of sound (583.09 K, 6500 kPa) was 165.5 ± 7.4 m/s, the speed of sound (583.3 K, 7500 kPa) was 190.5 ± 9.4 m/s and the speed of sound (584.09 K, 3500 kPa) was 183 ± 8.6 m/s. The speed of sound (587.91 K, 4500 kPa) was 170.5 ± 8 m/s, the speed of sound (588.07 K, 5500 kPa) was 160.4 ± 7.1 m/s and the speed of sound (588.45 K, 6500 kPa) was 166.4 ± 7.5 m/s. It also gave a speed of sound (588.59 K, 3500 kPa) of 186.5 ± 8.7 m/s, a speed of sound (589.01 K, 7500 kPa) of 188.8 ± 9.3 m/s and a speed of sound (592.61 K, 5500 kPa) of 164.2 ± 7.3 m/s. The speed of sound (592.78 K, 6500 kPa) was 168.5 ± 7.9 m/s, the speed of sound (593.04 K, 4500 kPa) was 174.8 ± 8.1 m/s and the speed of sound (593.24 K, 7500 kPa) was 187.8 ± 9.2 m/s. For the same compound, the speed of sound (594.05 K, 3500 kPa) was 188.6 ± 9.2 m/s, the speed of sound (597.84 K, 4500 kPa) was 178.5 ± 8.3 m/s and the speed of sound (597.98 K, 5500 kPa) was 169.1 ± 7.9 m/s. The speed of sound (598.14 K, 6500 kPa) was 168.6 ± 7.8 m/s, the speed of sound (598.52 K, 7500 kPa) was 186.2 ± 8.7 m/s and the speed of sound (598.83 K, 3500 kPa) was 192.2 ± 9.3 m/s. The speed of sound (602.73 K, 4500 kPa) was 181.2 ± 8.4 m/s, the speed of sound (602.85 K, 5500 kPa) was 172 ± 8 m/s and the speed of sound (603.05 K, 6500 kPa) was 173.4 ± 8.1 m/s. The speed of sound (603.41 K, 3500 kPa) was 195.9 ± 9.5 m/s, the speed of sound (603.44 K, 7500 kPa) was 186 ± 8.7 m/s and the speed of sound (608.03 K, 4500 kPa) was 183.5 ± 8.5 m/s. It also gave a speed of sound (608.05 K, 5500 kPa) of 178 ± 8.3 m/s, a speed of sound (608.12 K, 6500 kPa) of 175.1 ± 8.1 m/s and a speed of sound (608.49 K, 7500 kPa) of 185.6 ± 8.6 m/s. For the same compound, the speed of sound (608.96 K, 3500 kPa) was 198.5 ± 9.6 m/s, the speed of sound (612.5 K, 5500 kPa) was 180.2 ± 8.4 m/s and the speed of sound (612.69 K, 6500 kPa) was 179.7 ± 8.3 m/s. It also gave a speed of sound (612.7 K, 4500 kPa) of 187 ± 9.1 m/s, a speed of sound (613.43 K, 7500 kPa) of 187.8 ± 9.1 m/s and a speed of sound (614.5 K, 3500 kPa) of 203.1 ± 9.9 m/s. The speed of sound (617.91 K, 4500 kPa) was 193.6 ± 9.4 m/s, the speed of sound (618.05 K, 5500 kPa) was 184.3 ± 8.5 m/s and the speed of sound (618.21 K, 6500 kPa) was 182 ± 8.4 m/s. For the same compound, the speed of sound (618.56 K, 7500 kPa) was 190.1 ± 9.2 m/s, the speed of sound (618.79 K, 3500 kPa) was 204.3 ± 9.9 m/s and the speed of sound (622.49 K, 6500 kPa) was 184.8 ± 8.6 m/s. It also gave a speed of sound (622.59 K, 7500 kPa) of 191 ± 9.2 m/s, a speed of sound (622.8 K, 5500 kPa) of 186.5 ± 8.6 m/s and a speed of sound (623.06 K, 4500 kPa) of 195.6 ± 9.5 m/s. The speed of sound (624.52 K, 3500 kPa) was 206.1 ± 10 m/s, the speed of sound (628.11 K, 5500 kPa) was 190.4 ± 9.2 m/s and the speed of sound (628.12 K, 7500 kPa) was 194.6 ± 9.4 m/s. It also gave a speed of sound (628.15 K, 4500 kPa) of 198.3 ± 9.6 m/s, a speed of sound (628.16 K, 6500 kPa) of 189 ± 9.1 m/s and a speed of sound (629.29 K, 3500 kPa) of 209.3 ± 10 m/s. The speed of sound (632.52 K, 4500 kPa) was 202.1 ± 9.8 m/s, the speed of sound (632.99 K, 6500 kPa) was 192.3 ± 9.3 m/s and the speed of sound (633.06 K, 7500 kPa) was 196.8 ± 9.5 m/s. The speed of sound (633.07 K, 5500 kPa) was 193.6 ± 9.4 m/s, the speed of sound (633.86 K, 3500 kPa) was 210.4 ± 11 m/s and the speed of sound (635.27 K, 7500 kPa) was 198 ± 9.6 m/s. For the same compound, the speed of sound (635.5 K, 6500 kPa) was 194.3 ± 9.4 m/s, the speed of sound (636.04 K, 5500 kPa) was 195 ± 9.4 m/s and the speed of sound (636.79 K, 4500 kPa) was 204.9 ± 9.9 m/s. For the same compound, the speed of sound (637.99 K, 3500 kPa) was 211.6 ± 11 m/s.
